Reference: ChEMBL document CHEMBL2029256, “Structure-activity relationships of trimethoxybenzyl piperazine N-type calcium channel inhibitors” (Bioorg Med Chem Lett, 2012)

What was measured:
[1] = target: Voltage-gated inwardly rectifying potassium channel KCNH2 (Homo sapiens, UniProt Q12809); assay: Inhibition of human Erg expressed in HEK293 cells by whole cell patch clamp analysis
[2] = Inhibition of rat N-type calcium channel alpha1B/alpha2delta-1/beta1b expressed in HEK293 cells by whole cell patch clamp analysis; format: cell-based
[3] = system: Rattus norvegicus; assay: Antiallodynic activity in rat chung model of neuropathic pain assessed as inhibition of nerve ligation-induced thermal hyperalgesia at 30 mg/kg, po measured at 30 mins interval for 3 hrs relative to control
[4] = system: Rattus norvegicus; assay: Antiallodynic activity in rat chung model of neuropathic pain assessed as paw withdrawal at 30 mg/kg, po measured at 30 mins interval for 3 hrs relative to control
[5] = species: Rattus norvegicus; assay: animal or person; conditions: ip, read-out: INH
[6] = species: Rattus norvegicus; assay: animal or person; conditions: ip, read-out: INH; remark: listed apart in the source
[7] = species: Rattus norvegicus; assay: animal or person; conditions: ip, read-out: INH; remark: listed apart in the source
[8] = Inhibition of rat L-type calcium channel alpha1C/alpha2delta-1/beta1b expressed in HEK293 cells by whole cell patch clamp analysis; format: cell-based

Chain of Voltage-gated inwardly rectifying potassium channel KCNH2 (Q12809 whole entry): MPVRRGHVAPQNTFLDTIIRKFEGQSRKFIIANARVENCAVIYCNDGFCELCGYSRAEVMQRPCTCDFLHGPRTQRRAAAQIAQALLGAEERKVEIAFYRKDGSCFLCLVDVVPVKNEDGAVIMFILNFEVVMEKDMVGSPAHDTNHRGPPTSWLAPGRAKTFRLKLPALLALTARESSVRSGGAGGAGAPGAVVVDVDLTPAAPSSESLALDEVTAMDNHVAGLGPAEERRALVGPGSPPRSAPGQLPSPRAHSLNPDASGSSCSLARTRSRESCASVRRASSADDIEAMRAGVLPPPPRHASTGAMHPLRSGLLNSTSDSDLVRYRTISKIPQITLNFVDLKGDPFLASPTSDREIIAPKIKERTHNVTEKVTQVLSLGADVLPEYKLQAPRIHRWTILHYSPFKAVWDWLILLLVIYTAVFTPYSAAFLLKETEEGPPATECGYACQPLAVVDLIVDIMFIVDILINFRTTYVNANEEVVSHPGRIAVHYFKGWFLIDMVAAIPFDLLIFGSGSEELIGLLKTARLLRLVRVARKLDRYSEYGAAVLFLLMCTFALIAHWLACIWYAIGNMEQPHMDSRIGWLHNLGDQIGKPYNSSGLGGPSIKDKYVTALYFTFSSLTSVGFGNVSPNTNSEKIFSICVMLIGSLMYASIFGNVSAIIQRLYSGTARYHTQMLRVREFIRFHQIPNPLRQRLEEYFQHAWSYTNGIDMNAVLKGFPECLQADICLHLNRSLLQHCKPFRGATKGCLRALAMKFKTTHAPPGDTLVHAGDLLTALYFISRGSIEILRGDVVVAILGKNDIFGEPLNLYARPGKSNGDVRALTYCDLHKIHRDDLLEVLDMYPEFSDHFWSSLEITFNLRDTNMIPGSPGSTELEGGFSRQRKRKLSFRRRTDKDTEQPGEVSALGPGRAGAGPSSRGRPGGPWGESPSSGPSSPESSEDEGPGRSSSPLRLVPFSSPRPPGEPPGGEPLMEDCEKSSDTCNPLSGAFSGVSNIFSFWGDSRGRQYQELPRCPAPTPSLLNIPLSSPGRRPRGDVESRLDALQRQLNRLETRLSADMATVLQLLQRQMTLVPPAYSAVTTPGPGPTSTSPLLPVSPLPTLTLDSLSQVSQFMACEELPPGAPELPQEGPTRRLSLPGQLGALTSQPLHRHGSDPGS

Work on `COc1cc(CN2CCN(CCCCCC(c3ccc(F)cc3)c3ccc(F)cc3)CC2)cc(OC)c1OC` yielded an IC50 [1] of 400 nM.
For `COc1cc(CN2CCN(CCCCCC(c3ccc(F)cc3)c3ccc(F)cc3)CC2)cc(OC)c1O`, the IC50 [2] was 400 nM.
Work on `COc1cc(C(=O)N2CCN(C(=O)CCCCC(c3ccc(F)cc3)c3ccc(F)cc3)CC2)cc(OC)c1O` yielded an IC50 [2] of 600 nM.
Compound `CC(C)(C)c1cc(CN2CCN(CCCCCC(c3ccc(F)cc3)c3ccc(F)cc3)CC2)cc(C(C)(C)C)c1O` has an IC50 [2] of 40 nM and an IC50 [1] of 100 nM.
With `CC(C)(C)c1cc(C(=O)N2CCN(CCCCCC(c3ccc(F)cc3)c3ccc(F)cc3)CC2)cc(C(C)(C)C)c1O` the IC50 [2] was 150 nM.
Work on `CC(C)(C)c1cc(CN2CCN(C(=O)CCCCC(c3ccc(F)cc3)c3ccc(F)cc3)CC2)cc(C(C)(C)C)c1O` yielded an IC50 [2] of 180 nM.
Work on `CC(C)(C)c1cc(C(=O)N2CCN(C(=O)CCCCC(c3ccc(F)cc3)c3ccc(F)cc3)CC2)cc(C(C)(C)C)c1O` yielded an IC50 [2] of 220 nM.
Work on `COc1c(C(C)(C)C)cc(CN2CCN(CCCCCC(c3ccc(F)cc3)c3ccc(F)cc3)CC2)cc1C(C)(C)C` yielded an IC50 [2] of 90 nM.
In the case of `COc1c(C(C)(C)C)cc(C(=O)N2CCN(CCCCCC(c3ccc(F)cc3)c3ccc(F)cc3)CC2)cc1C(C)(C)C`, the IC50 [2] is reported as 110 nM.
`COc1c(C(C)(C)C)cc(CN2CCN(C(=O)CCCCC(c3ccc(F)cc3)c3ccc(F)cc3)CC2)cc1C(C)(C)C` showed an IC50 [2] of 100 nM.
With `COc1c(C(C)(C)C)cc(C(=O)N2CCN(C(=O)CCCCC(c3ccc(F)cc3)c3ccc(F)cc3)CC2)cc1C(C)(C)C` the Emax at 30 mg/kg [3] was 54.2%, the Emax at 30 mg/kg [4] was 1.9% and the IC50 [2] was 90 nM. The inhibition in vivo at 30 mg/kg [5] was 79%.
For `CC(C)(C)c1cc(CN2CCN(CCCCCC(c3ccc(F)cc3)c3ccc(F)cc3)CC2)cc(C(C)(C)C)c1`, the IC50 [2] was 140 nM.
`CC(C)(C)c1cc(C(=O)N2CCN(C(=O)CCCCC(c3ccc(F)cc3)c3ccc(F)cc3)CC2)cc(C(C)(C)C)c1` gave an IC50 [2] of 300 nM.
Work on `Fc1ccc(C(CCCCCN2CCN(Cc3cc(C(F)(F)F)cc(C(F)(F)F)c3)CC2)c2ccc(F)cc2)cc1` yielded an IC50 [2] of 1100 nM.
`O=C(CCCCC(c1ccc(F)cc1)c1ccc(F)cc1)N1CCN(C(=O)c2cc(C(F)(F)F)cc(C(F)(F)F)c2)CC1` showed an IC50 [2] of 510 nM.
`COc1c(C(C)(C)C)cc(C(=O)N2CCN(C(=O)CCCCC(c3ccc(F)cc3)c3ccc(F)cc3)[C@@H](C)C2)cc1C(C)(C)C` showed an IC50 [2] of 10 nM.
For `COc1c(C(C)(C)C)cc(C(=O)N2CCN(C(=O)CCCCC(c3ccc(F)cc3)c3ccc(F)cc3)C[C@@H]2C)cc1C(C)(C)C`, the Emax at 30 mg/kg [3] was 85.8%, the Emax at 30 mg/kg [4] was 31.7% and the inhibition in vivo at 30 mg/kg [6] was 50%. It also gave an IC50 [2] of 40 nM, an inhibition in vivo at 30 mg/kg [5] of 79% and an inhibition in vivo at 30 mg/kg [7] of 61%. The IC50 [8] was 144 µM.
Work on `CC(C)(C)c1cc(C(=O)NCC2CCN(C(=O)CCCCC(c3ccc(F)cc3)c3ccc(F)cc3)C2)cc(C(C)(C)C)c1` (stereo not drawn) yielded an IC50 [2] of 110 nM.
Work on `COc1c(C(C)(C)C)cc(C(=O)NCC2CCN(C(=O)CCCCC(c3ccc(F)cc3)c3ccc(F)cc3)C2)cc1C(C)(C)C` (stereo not drawn) yielded an IC50 [2] of 40 nM.
`O=C(NCC1CCN(C(=O)CCCCC(c2ccc(F)cc2)c2ccc(F)cc2)C1)c1cc(C(F)(F)F)cc(C(F)(F)F)c1` (stereo not drawn) showed an IC50 [2] of 210 nM.
`O=C(NCC1CCN(C(=O)CCCCC(c2ccc(F)cc2)c2ccc(F)cc2)C1)c1cc(F)cc(C(F)(F)F)c1` (stereo not drawn) showed an IC50 [2] of 750 nM.
`COc1cc(C(=O)NCC2CCN(CCCCCC(c3ccc(F)cc3)c3ccc(F)cc3)C2)cc(OC)c1OC` (stereo not drawn) showed an IC50 [2] of 280 nM.
For `O=C(NCC1CCN(CCCCCC(c2ccc(F)cc2)c2ccc(F)cc2)C1)c1cc(C(F)(F)F)cc(C(F)(F)F)c1` (stereo not drawn), the IC50 [2] was 150 nM.
For `COc1cc(CNCC2CCN(CCCCCC(c3ccc(F)cc3)c3ccc(F)cc3)C2)cc(OC)c1OC` (stereo not drawn), the IC50 [2] was 60 nM.
Work on `CC(C)(C)c1cc(CNCC2CCN(CCCCCC(c3ccc(F)cc3)c3ccc(F)cc3)C2)cc(C(C)(C)C)c1O` (stereo not drawn) yielded an IC50 [2] of 50 nM.
Compound `CC(C)(C)c1cc(CNCC2CCN(CCCCCC(c3ccc(F)cc3)c3ccc(F)cc3)C2)cc(C(C)(C)C)c1` (stereo not drawn) has an IC50 [2] of 30 nM and an IC50 [1] of 460 nM.
For `CC(C)(C)c1cc(C(=O)NC[C@H]2CCN(C(=O)CCCCC(c3ccc(F)cc3)c3ccc(F)cc3)C2)cc(C(C)(C)C)c1`, the IC50 [2] was 160 nM.
`CC(C)(C)c1cc(C(=O)NC[C@@H]2CCN(C(=O)CCCCC(c3ccc(F)cc3)c3ccc(F)cc3)C2)cc(C(C)(C)C)c1` showed an IC50 [2] of 120 nM.
In the case of `COc1c(C(C)(C)C)cc(C(=O)NC[C@H]2CCN(C(=O)CCCCC(c3ccc(F)cc3)c3ccc(F)cc3)C2)cc1C(C)(C)C`, the IC50 [2] is reported as 150 nM.
For `O=C(NC[C@H]1CCN(C(=O)CCCCC(c2ccc(F)cc2)c2ccc(F)cc2)C1)c1cc(C(F)(F)F)cc(C(F)(F)F)c1`, the IC50 [2] was 100 nM.
Compound `O=C(NC[C@@H]1CCN(C(=O)CCCCC(c2ccc(F)cc2)c2ccc(F)cc2)C1)c1cc(C(F)(F)F)cc(C(F)(F)F)c1` has an IC50 [2] of 90 nM.
For `COc1cc(C(=O)NCC2CCN(C(=O)CCCCC(c3ccccc3)C3CCN(C)CC3)C2)cc(OC)c1OC` (stereo not drawn), the IC50 [2] was 3200 nM.
In the case of `COc1c(C(C)C)cc(C(=O)NCC2CCN(C(=O)CCCCC(c3ccccc3)C3CCN(C)CC3)C2)cc1C(C)C` (stereo not drawn), the IC50 [2] is reported as 1900 nM.
Compound `COc1c(C)cc(C(=O)NCC2CCN(C(=O)CCCCC(c3ccccc3)C3CCN(C)CC3)C2)cc1C` (stereo not drawn) has an IC50 [2] of 100 nM.
`CN1CCC(C(CCCCC(=O)N2CCC(CNC(=O)c3cc(Cl)cc(Cl)c3)C2)c2ccccc2)CC1` (stereo not drawn) showed an IC50 [2] of 880 nM.
Compound `COc1cc(C(=O)N2CCC(CNC(=O)CCCCC(c3ccc(F)cc3)c3ccc(F)cc3)C2)cc(OC)c1OC` (stereo not drawn) has an IC50 [2] of 840 nM and an IC50 [1] of 750 nM.
In the case of `COc1c(C(C)(C)C)cc(C(=O)N2CCC(CNC(=O)CCCCC(c3ccc(F)cc3)c3ccc(F)cc3)C2)cc1C(C)(C)C` (stereo not drawn), the IC50 [2] is reported as 1900 nM.
Work on `COc1cc(CN2CCC(CNCCCCCC(c3ccc(F)cc3)c3ccc(F)cc3)C2)cc(OC)c1OC` (stereo not drawn) yielded an IC50 [2] of 60 nM and an IC50 [1] of 100 nM.
`CC(C)(C)c1cc(CN2CCC(CNCCCCCC(c3ccc(F)cc3)c3ccc(F)cc3)C2)cc(C(C)(C)C)c1O` (stereo not drawn) showed an IC50 [2] of 4 nM.
`COc1c(C(C)(C)C)cc(CN2CCC(CNCCCCCC(c3ccc(F)cc3)c3ccc(F)cc3)C2)cc1C(C)(C)C` (stereo not drawn) showed an IC50 [2] of 32 nM.
